Reference: US20230399314A1, “CD73 INHIBITOR AND USE THEREOF” (WUHAN HUMANWELL INNOVATIVE DRUG RESEARCH AND DEVELOPMENT …, priority 2020, published 2023)

What was measured:
[1] = Pharmacokinetic test on dogs; type: in vivo, male Beagle dogs
Protocol: (§1) In a pharmacokinetic test on mice, male ICR mice of 20 g to 25 g were used and fasted overnight. 3 mice were selected for orally intragastric administration (10 mg/kg). Before administration, and 15 min, 30 min, 1 h, 2 h, 4 h, 8 h, and 24 h after administration, blood was sampled from each mouse. Another 3 mice were selected for intravenous injection administration (3 mg/kg), and before administration, and 15 min, 30 min, 1 h, 2 h, 4 h, 8 h, and 24 h after administration, blood was sampled from each mouse. The blood sample was centrifuged at 6,800 g and 2 to 8° C. for 6 min, and plasma was collected and stored at −80° C. The plasma of each time point was vortex-mixed for 1 min with an acetonitrile solution containing the internal standard with a volume 3-5 times that of the plasma of each time point, and centrifuged at 13,000 rpm and 4° C. for 10 min, a supernatant was collected and mixed with water with a volume 3 times that of the supernatant, and an appropriate amount of the mixed solution was used for LC-MS/MS analysis. The main pharmacokinetic parameters were analyzed by using a WinNonlin 7.0 non-compartmental model.
In a pharmacokinetic test on dogs, male Beagle dogs of 8 to 10 kg were used and fasted overnight. 3 Beagle dogs were selected for orally intragastric administration (5 mg/kg). Another 3 Beagle dogs were selected for intravenous injection administration (1 mg/kg). Other operations were the same as the pharmacokinetic test on mice.

[2] = Pharmacokinetic test on mice; type: in vivo, male ICR mice; settings: for Vd: read-out: Vz; for pharmacokinetic properties compared to the reference compounds: mice
Protocol: as §1

Human CD4+ T cells = assay: Relieving AMP-induced proliferation inhibition of human CD4+ T cells (CCK8); type: cell-based; settings: AMP 0.3 mM, day 5
Protocol: On day 1 of the experiment, CD4^+ T cells (Allcells Shanghai, PB009-2F-C) were thawed, and inoculated into two replicate wells according to 3×10^4 cells/well and 50 μL/well. The compound was diluted with a complete medium to form a stock solution (4×) of an appropriate concentration gradient, the compound solution was added to the above cells according to 50 μL/well, and the mixture was pre-incubated at 37° C. for 30 min. […] Meanwhile, a positive reference group (Human CD4^+ T+IL-2+CD3/CD28 beads) and a negative reference group (Human CD4^+ T+IL-2+CD3/CD28 beads+AMP) were set. AMP (Sigma; A1752-5G) was diluted with a complete medium to form an AMP solution (4×), the AMP solution was added to the above cells according to 50 μL/well, the final concentration was 0.3 mM, and the mixture was incubated at 37° C. On day 3 of the experiment, the AMP solution was added to the above plate according to 20 μL/well, and the final concentration was 0.3 mM. On day 5, the proliferation of the cells was detected by using a CCK8 kit (DojinDO; CK04).
Inhibition rates of the compound at different concentrations in relieving AMP-induced proliferation inhibition of CD4^+ T cells were calculated according to the following formula, the concentration of the compound was taken as the X-axis, the inhibition rate was taken as the Y-axis, and an EC50 value of the compound in relieving the AMP-induced proliferation inhibition of CD4^+ T cells was calculated by using Prism software.

Human-CD73 enzyme = Human-CD73 enzyme (Homo sapiens (Human), UniProt P21589); assay: In vitro inhibitory activity to recombinant human CD73 enzyme (ATP-GLO); type: biochemical; settings: Human-CD73 0.1 μg/mL, AMP 100 μM
Protocol: Human-CD73 (Novoprotein; C446) was diluted with Tris-MgCl2 buffer to form a stock solution (3×), which was placed in a 96-well plate according to 20 μL/well to obtain a final concentration of 0.1 μg/mL. The compound was diluted with Tris-MgCl2 buffer to form a stock solution (3×) of an appropriate concentration gradient, the compound solution was added to the above 96-well plate according to 20 μL/well and uniformly mixed with the Human-CD73 solution, and the mixture was incubated at the room temperature for 30 min. Meanwhile, a positive reference group (without the compound) and a negative reference group (without CD73) were set. AMP (Sigma; A1752-5G) was diluted with Tris-MgCl2 buffer to form a stock solution (3×), which was added to the above 96-well plate according to 20 μL/well to obtain a final concentration of 100 μM, and the mixture was uniformly mixed and incubated at 37° C. for 60 min; ATP (Sigma; A7699-1G) was diluted with Tris-MgCl2 buffer to form a stock solution (7×), which was added to the above 96-well plate according to 10 μL/well to obtain a final concentration of 100 μM, and the mixture was uniformly mixed, incubated for 5 min, and tested by using an ATP-GLO kit (Promega; G7573).
(§2) Human-CD73 inhibition rates of the compound at different concentrations were calculated according to the following formula, the concentration of the compound was taken as the X-axis, the inhibition rate was taken as the Y-axis, and an IC50 value of the compound in inhibiting Human-CD73 was calculated by using Prism software.

[3] = biological target: CD73 bound to the surfaces of A375 cells (Homo sapiens (Human), UniProt P21589); assay: Inhibitory activity to CD73 enzyme bound to the surfaces of human melanoma A375 cells; type: cell-based; settings: AMP 200 μM, 16 h
Protocol: The compound was diluted with serum-free DMEM to form a stock solution (5×) of an appropriate concentration gradient, the compound solution was added to the cells in the above 96-well plate according to 20 μL/well, and the mixture was placed in an incubator and pre-incubated for 30 min.
as §2, with “A375-bound CD73” for “Human-CD73”

[4] = male, Beagle, plasma, po, dog, orally intragastric 5 mg/kg
[5] = male, Beagle, plasma, dog, intravenous injection 1 mg/kg
[6] = male, ICR, plasma, po, mouse, orally intragastric 10 mg/kg
[7] = male, ICR, plasma, po, mouse, orally intragastric 10 mg/kg, read-out: AUC0-t
[8] = male, ICR, plasma, po, mouse, orally intragastric 10 mg/kg, read-out: Cmax
[9] = male, ICR, plasma, po, mouse, orally intragastric 10 mg/kg, read-out: Tmax
[10] = male, ICR, plasma, mouse, intravenous injection 3 mg/kg
[11] = male, ICR, plasma, mouse, intravenous injection 3 mg/kg, read-out: AUC0-t
[12] = mouse, orally intragastric 10 mg/kg

Sequence of Human-CD73 enzyme (P21589 27-574): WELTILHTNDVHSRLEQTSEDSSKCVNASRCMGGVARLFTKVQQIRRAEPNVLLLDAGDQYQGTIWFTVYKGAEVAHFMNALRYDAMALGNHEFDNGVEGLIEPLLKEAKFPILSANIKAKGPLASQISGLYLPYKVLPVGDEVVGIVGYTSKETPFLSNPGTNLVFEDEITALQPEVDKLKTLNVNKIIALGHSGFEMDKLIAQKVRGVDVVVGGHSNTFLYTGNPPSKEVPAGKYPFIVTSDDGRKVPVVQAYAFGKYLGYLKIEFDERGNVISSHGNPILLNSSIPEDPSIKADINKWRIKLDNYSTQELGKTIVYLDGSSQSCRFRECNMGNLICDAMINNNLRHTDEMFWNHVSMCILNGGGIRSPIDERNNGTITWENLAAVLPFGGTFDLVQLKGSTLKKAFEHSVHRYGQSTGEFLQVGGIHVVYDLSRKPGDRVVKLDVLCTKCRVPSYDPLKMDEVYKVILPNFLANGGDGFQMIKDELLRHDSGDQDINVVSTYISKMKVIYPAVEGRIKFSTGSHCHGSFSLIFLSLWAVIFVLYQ
Sequence of CD73 bound to the surfaces of A375 cells (P21589 27-574): as above

In the case of `O=c1[nH]cc(-c2cc([C@H]3C[C@@H]3COC(F)(F)F)c(Cl)nn2)c(=O)[nH]1` [Compound 11, 5-(6-chloro-5-((1S,2S)-2-((trifluoromethoxy)methyl)cyclopropyl)pyridazin-3-yl)pyrimidine-2,4(1H,3H)-dione], the “exposure compared to the reference compounds” value ([1]; dogs) is reported as “much higher”, the AUC(0-t) [1, 4] is reported as 16.6 µg·h/mL and the Cmax [1, 4] is reported as 5.71 µg/mL. The Tmax [1, 4] was 0.83 h, the half-life [1, 4] was 2.27 h and the AUC(0-t) [1, 5] was 2.1 µg·h/mL. For the same compound, the clearance [1, 5] was 0.53 L/h/kg, the half-life [1, 5] was 0.89 h and the Vd ([1]; male, Beagle, plasma, dog, intravenous injection 1 mg/kg, read-out: Vz) was 0.66 L/kg. For the same compound, the half-life [2, 6] was 3.06 h, the AUC(0-t) [2, 7] was 36.2 µg·h/mL and the Cmax [2, 8] was 5.53 µg/mL. For the same compound, the Tmax [2, 9] was 0.67 h, the clearance [2, 10] was 0.47 L/h/kg and the half-life [2, 10] was 3.72 h. The AUC(0-t) [2, 11] was 6.95 µg·h/mL, the Vd [2, 10] was 2.57 L/kg and the “pharmacokinetic properties compared to the reference compounds” value [2] was “significantly improved”. For the same compound, the EC50 (Human CD4+ T cells; Homo sapiens, 120 h) was 0.169 µM.
In the case of `CCOC[C@H]1C[C@@H]1c1cc(-c2c[nH]c(=O)[nH]c2=O)nnc1Cl` [Compound 16, 5-(6-chloro-5-((1S,2S)-2-(ethoxymethyl)cyclopropyl)pyridazin-3-yl)-1H-pyrimidine-2,4-dione], the IC50 (Human-CD73 enzyme) is reported as 0.173 µM.
For `O=c1[nH]cc(-c2cc([C@H]3C[C@@H]3CC(F)F)c(Cl)nn2)c(=O)[nH]1` [Compound 18, 5-(6-chloro-5-((1S,2R)-2-(2,2-difluoroethyl)cyclopropyl)pyridazin-3-yl)pyrimidine-2,4(1H,3H)-dione], the IC50 [3] was 0.0176 µM, the half-life [2, 6] was 1.43 h and the AUC(0-t) [2, 7] was 9.8 µg·h/mL. It also gave a Cmax [2, 8] of 4.41 µg/mL, a Tmax [2, 9] of 0.42 h and a clearance [2, 10] of 0.62 L/h/kg. The half-life [2, 10] was 1.82 h, the AUC(0-t) [2, 11] was 5.07 µg·h/mL and the Vd [2, 10] was 1.5 L/kg.
In the case of `CC(C)OC[C@H]1C[C@@H]1c1cc(-c2c[nH]c(=O)[nH]c2=O)nnc1Cl` [Compound 17, 5-(6-chloro-5-((1S,2S)-2-(isopropoxymethyl)cyclopropyl)pyridazin-3-yl)-1H-pyrimidine-2,4-dione], the IC50 (Human-CD73 enzyme) is reported as 0.164 µM.
For `CC(O)[C@H]1C[C@@H]1c1cc(-c2c[nH]c(=O)[nH]c2=O)nnc1Cl` (stereo partly drawn) [Compound 6, 5-(6-chloro-5-((1S,2S)-2-(1-hydroxyethyl)cyclopropyl)pyridazin-3-yl)pyrimidine-2,4(1H,3H)-dione], the IC50 (Human-CD73 enzyme) was 0.0245 µM.
`O=c1[nH]cc(-c2cc([C@H]3C[C@@H]3C(F)(F)F)c(Cl)nn2)c(=O)[nH]1` [Compound 3, 5-(6-chloro-5-((1S,2S)-2-(trifluoromethyl)cyclopropyl)pyridazin-3-yl)pyrimidine-2,4(1H,3H)-dione] showed an IC50 [3] of 0.0268 µM, a half-life [2, 6] of 2.7 h and an AUC(0-t) [2, 7] of 107 µg·h/mL. The Cmax [2, 8] was 12.1 µg/mL, the Tmax [2, 9] was 0.83 h and the clearance [2, 10] was 0.22 L/h/kg. It also gave a half-life [2, 10] of 3.72 h, an AUC(0-t) [2, 11] of 13.8 µg·h/mL and a Vd [2, 10] of 1.17 L/kg. For the same compound, the “pharmacokinetic properties compared to the reference compounds” value [2] was “significantly improved” and the EC50 (Human CD4+ T cells; Homo sapiens, 120 h) was 0.111 µM.
`O=c1[nH]cc(-c2cc([C@@H]3C[C@H]3CC(F)F)c(Cl)nn2)c(=O)[nH]1` [Compound 19, 5-(6-chloro-5-((1R,2S)-2-(2,2-difluoroethyl)cyclopropyl)pyridazin-3-yl)pyrimidine-2,4(1H,3H)-dione] showed an IC50 (Human-CD73 enzyme) of 1.25 µM.
Compound `N#Cc1nnc(-c2c[nH]c(=O)[nH]c2=O)cc1[C@H]1C[C@@H]1C(F)(F)F` [Compound 15, 6-(2,4-dioxo-1H-pyrimidin-5-yl)-4-((1S,2S)-2-(trifluoromethyl)cyclopropyl)pyridazine-3-carbonitrile] has an IC50 (Human-CD73 enzyme) of 0.123 µM.
`O=c1[nH]cc(-c2cc([C@@H]3C[C@H]3CC(F)(F)F)c(Cl)nn2)c(=O)[nH]1` [Compound 13, 5-(6-chloro-5-((1R,2S)-2-(2,2,2-trifluoroethyl)cyclopropyl)pyridazin-3-yl)pyrimidine-2,4(1H,3H)-dione] gave an IC50 (Human-CD73 enzyme) of 6.87 µM.
With `CC(C)(O)[C@H]1C[C@@H]1c1cc(-c2c[nH]c(=O)[nH]c2=O)nnc1Cl` [Compound 5, 5-(6-chloro-5-((1S,2S)-2-(2-hydroxypropan-2-yl)cyclopropyl)pyridazin-3-yl)pyrimidine-2,4(1H,3H)-dione] the IC50 (Human-CD73 enzyme) was 0.0116 µM.
With `O=c1[nH]cc(-c2cc([C@H]3C[C@@H]3CC(F)(F)F)c(Cl)nn2)c(=O)[nH]1` [Compound 9, 5-(6-chloro-5-((1S,2R)-2-(2,2,2-trifluoroethyl)cyclopropyl)pyridazin-3-yl)pyrimidine-2,4(1H,3H)-dione] the IC50 [3] was 0.00556 µM, the “pharmacokinetic properties compared to the reference compounds” value [2] was “significantly improved” and the AUC(0-t) [2, 12] was 65.441 µg·h/mL. For the same compound, the Cmax [2, 12] was 6.6019 µg/mL, the T1/2 [2, 12] was 4.87 h and the Tmax [2, 12] was 1.17 h. For the same compound, the EC50 (Human CD4+ T cells) was 0.0326 µM and the IC50 (Human-CD73 enzyme) was 0.00817 µM.
Compound `Cc1nnc(-c2c[nH]c(=O)[nH]c2=O)cc1[C@H]1C[C@@H]1CF` [Compound 20, 5-(5-((1S,2S)-2-(fluoromethyl)cyclopropyl)-6-methylpyridazin-3-yl)pyrimidine-2,4(1H,3H)-dione] has an IC50 (Human-CD73 enzyme) of 0.00955 µM.
Work on `COC[C@H]1C[C@@H]1c1cc(-c2c[nH]c(=O)[nH]c2=O)nnc1Cl` [Compound 12, 5-(6-chloro-5-((1S,2S)-2-(methoxymethyl)cyclopropyl)pyridazin-3-yl)pyrimidine-2,4(1H,3H)-dione] yielded an IC50 (Human-CD73 enzyme) of 0.0154 µM.
In the case of `Cc1nnc(-c2c[nH]c(=O)[nH]c2=O)cc1[C@H]1C[C@@H]1C(F)F` [Reference compound 1, 5-(5-((1S,2S)-2-(difluoromethyl)cyclopropyl)-6-methylpyridazin-3-yl)pyrimidine-2,4(1H,3H)-dione, reference compound], the IC50 [3] is reported as 0.247 µM, the half-life [2, 6] is reported as 1.17 h and the AUC(0-t) [2, 7] is reported as 0.821 µg·h/mL. The Cmax [2, 8] was 1.15 µg/mL, the Tmax [2, 9] was 0.25 h and the clearance [2, 10] was 5.11 L/h/kg. The half-life [2, 10] was 1.99 h, the AUC(0-t) [2, 11] was 0.585 µg·h/mL and the Vd [2, 10] was 14.7 L/kg. The IC50 (Human-CD73 enzyme) was 0.0125 µM.
With `O=c1[nH]cc(-c2cc([C@@H]3C[C@H]3CF)c(Cl)nn2)c(=O)[nH]1` [Compound 8, 5-(6-chloro-5-((1R,2R)-2-(fluoromethyl)cyclopropyl)pyridazin-3-yl)pyrimidine-2,4(1H,3H)-dione] the IC50 (Human-CD73 enzyme) was 0.0165 µM.
For `Cc1nnc(-c2c[nH]c(=O)[nH]c2=O)cc1[C@H]1C[C@@H]1C(F)(F)F` [Compound 7, 5-(6-methyl-5-((1S,2S)-2-(trifluoromethyl)cyclopropyl)pyridazin-3-yl)pyrimidine-2,4(1H,3H)-dione], the IC50 [3] was 0.0549 µM and the IC50 (Human-CD73 enzyme) was 0.0321 µM.
